According to patent US4943595A, “Perfluorochemicals and process for preparing the same” (The Green Cross Corporation, priority 1984, dated 1990):

system: not listed separately; assay: Vapor pressure of the perfluorochemical; settings: 38° C.

SMILES	Vapor pressure
FC(F)(F)C(F)(F)C(F)(F)OC(F)(C(F)(C(F)(F)F)C(F)(F)F)C(F)(C(F)(F)F)C(F)(F)F [Example 7, Perfluoro-3-propoxy-2,4-dimethylpentane]	16-17 mmHg
FC(F)(F)C(F)(F)C(F)(F)OC(C(F)(F)F)(C(F)(F)F)C(F)(F)C(F)(F)C(F)(F)F [Example 12, Perfluoro-2-n-propoxy-2-methylpentane]	33 mmHg
FC(F)(F)C(F)(F)C(F)(F)OC(F)(F)C(F)(F)C(F)(F)C(F)(F)C(F)(F)C(F)(F)C(F)(F)F [Example 18, Perfluoro-1-n-propoxyheptane]	15-16 mmHg
FC(F)(F)OC(F)(C(F)(F)F)C(F)(F)C(C(F)(F)F)(C(F)(F)C(F)(F)F)C(F)(F)C(F)(F)F (stereo not drawn) [Example 24, perfluoro-2-methoxy-4-ethyl-4-methylhexane]	17-18 mmHg
FC(F)(F)C(F)(F)OC(F)(C(F)(F)F)C(F)(F)C(C(F)(F)F)(C(F)(F)C(F)(F)F)C(F)(F)C(F)(F)F (stereo not drawn) [Example 25, perfluoro-2-ethoxy-4-ethyl-4-methylhexane]	8-9 mmHg
FC(F)(F)OC(F)(C(F)(F)F)C(F)(C(F)(C(F)(F)F)C(F)(F)F)C(F)(C(F)(F)F)C(F)(F)F (stereo not drawn) [Example 26, perfluoro-2-methoxy-3-isopropyl-4-methylpentane]	18-19 mmHg
FC(F)(F)C(F)(F)OC(F)(C(F)(F)F)C(F)(C(F)(C(F)(F)F)C(F)(F)F)C(F)(C(F)(F)F)C(F)(F)F (stereo not drawn) [Example 27, perfluoro-2-ethoxy-3-isopropyl-4-methylpentane]	10-11 mmHg
FC(F)(F)C(F)(F)OC(F)(F)C(F)(C(F)(F)F)C(F)(OC(F)(F)C(F)(F)F)C(F)(F)C(F)(F)F (stereo not drawn) [Example 28, perfluoro-1,3-diethoxy-2-methylpentane]	13-14 mmHg
FC(F)(F)OC(F)(F)C(F)(C(F)(F)F)C(F)(OC(F)(F)F)C(F)(F)C(F)(F)F (stereo not drawn) [Example 29, perfluoro-1,3-dimethoxy-2-methylpentane]	48-50 mmHg
FC(F)(F)OC(OC(F)(F)C(F)(F)C(F)(F)C(F)(F)C(F)(F)F)(C(F)(F)F)C(F)(F)F [Example 30, perfluoro-2-pentoxy-2-methoxypropane]	28-29 mmHg
FC(F)(F)C(F)(F)OC(OC(F)(F)C(F)(F)C(F)(F)C(F)(F)C(F)(F)F)(C(F)(F)F)C(F)(F)F [Example 31, perfluoro-2-pentoxy-2-ethoxy propane]	13-14 mmHg
FC(F)(F)C(F)(F)C(F)(F)OC(OC(F)(F)C(F)(F)C(F)(F)F)(C(F)(F)F)C(F)(F)F [Example 32, perfluoro-2,2-di-n-propoxy-propane]	29-30 mmHg
FC(F)(F)N(C(F)(F)F)C(F)(F)C(F)(C(F)(F)F)C(F)(F)C(F)(F)C(F)(F)F (stereo not drawn) [Example 33, perfluoro-1-dimethylamino-2-methylpentane]	37-38 mmHg
FC(F)(F)N(C(F)(F)C(F)(F)F)C(F)(F)C(F)(C(F)(F)F)C(F)(F)C(F)(F)C(F)(F)F (stereo not drawn) [Example 34, perfluoro-1-ethylmethylamino-2-methylpentane]	21 mmHg
FC(F)(F)C(F)(F)N(C(F)(F)C(F)(F)F)C(F)(F)C(F)(C(F)(F)F)C(F)(F)C(F)(F)C(F)(F)F (stereo not drawn) [Example 35, perfluoro-1-diethylamino-2-methylpentane]	8-9 mmHg
FC(F)(F)N(C(F)(F)F)C(F)(F)C(F)(C(F)(F)F)C(F)(F)C(F)(C(F)(F)F)C(F)(F)F (stereo not drawn) [Example 36, Perfluoro-1-dimethylamino-2,4-dimethylpentane]	18-19 mmHg
FC(F)(F)N(C(F)(F)C(F)(F)F)C(F)(F)C(F)(C(F)(F)F)C(F)(F)C(F)(C(F)(F)F)C(F)(F)F (stereo not drawn) [Example 37, perfluoro-1-ethyl-methylamino-2,4-dimethylpentane]	12-13 mmHg
FC(F)(F)N(C(F)(F)F)C(C(F)(F)F)(C(F)(F)F)C(F)(F)C(F)(F)C(F)(F)F [Example 38, perfluoro-2-dimethylamino-2-methylpentane]	37-38 mmHg
FC(F)(F)N(C(F)(F)C(F)(F)F)C(C(F)(F)F)(C(F)(F)F)C(F)(F)C(F)(F)C(F)(F)F [Example 39, Perfluoro-2-methylethylamino-2-methylpentane]	20-21 mmHg
FC(F)(F)N(C(F)(F)C(F)(F)C(F)(F)F)C(C(F)(F)F)(C(F)(F)F)C(F)(F)C(F)(F)C(F)(F)F [Example 40, perfluoro-2-methylpropylamino-2-methylpentane]	9-10 mmHg
FC(F)(F)N(C(F)(F)F)C(F)(F)C(C(F)(F)F)(C(F)(F)F)C(F)(F)C(F)(F)C(F)(F)F [Example 41, Perfluoro-1-dimethylamino-2,2-dimethylpentane]	18-19 mmHg
FC(F)(F)N(C(F)(F)F)C(F)(C(F)(F)C(F)(F)F)C(F)(C(F)(F)F)C(F)(F)F (stereo not drawn) [Example 42, 3-perfluoro-3-dimethylamino-2-methylpentane]	37-38 mmHg
FC(F)(F)C(F)(F)N(C(F)(F)C(F)(F)F)C(F)(C(F)(F)C(F)(F)F)C(F)(C(F)(F)F)C(F)(F)F (stereo not drawn) [Example 43, perfluoro-3-diethylamino-2-methylpentane]	9-10 mmHg
FC(F)(F)N(C(F)(F)F)C(F)(C(F)(C(F)(F)F)C(F)(F)F)C(F)(C(F)(F)F)C(F)(F)F [Example 44, perfluoro-3-dimethylamino-2,4-dimethylpentane]	21-22 mmHg

system: not given; assay: not given; settings: comparison between perfluorochemicals; cited from earlier work

SMILES	elimination rate (in words)
FC(F)(F)C(F)(F)C(F)(F)C(F)(F)C1(F)C(F)(F)C(F)(F)C(F)(F)C(F)(F)C1(F)F [III]	IV>>III≥I >II
FC(F)(F)C(F)(F)C1(C(F)(F)F)C(F)(C(F)(F)F)OC(F)(C(F)(F)F)C1(F)C(F)(F)F (stereo not drawn) [II]	IV>>III≥I >II
FC1(F)C(F)(F)C(F)(F)C2(F)C(F)(F)C(F)(F)C(F)(F)C(F)(F)C2(F)C1(F)F (stereo not drawn) [IV]	IV>>III≥I >II
FC(F)(F)C(F)(F)C(F)(F)C(F)(F)C(F)(F)OC(F)(F)C(F)(F)C(F)(F)C(F)(F)C(F)(F)F [I]	IV>>III≥I >II
FC1(F)C(F)(F)C(F)(F)[C@]2(F)C(F)(F)C(F)(F)C(F)(F)C(F)(F)[C@]2(F)C1(F)F [perfluoro-cis-decalin]	slightly higher elimination rate than the trans isomer

system: wister male rats; assay: Acute toxicity after intravenous injection of emulsion, observed by dissection (pulmonary emphysema); assay type: in vivo; settings: i.v., rat, one week after injection
Experimental: (§1) According to the above preparation method of the emulsion, the emulsions of various perfluoroalkyl ether derivatives are prepared. Nine parts by volume of the resulting emulsion were diluted with 1 part by volume of an electrolyte solution of the following composition:
(§2) The emulsions were sterized by heating at 100° C. for 30 minutes in a nitrogen atmosphere. The emulsions were used for the following test.
The emulsions which had been made physiologically isotonic were injected intravenously to the wister male rats of 100 to 200 g. One week after the injection acute toxicity was observed by dissection, and evaluation was effected according to the following measures.
Toxic: Occurrence of pulmonary emphysema. LD50 : 2-4 g/kg
Non toxicic: No occurence of pulmonary emphysema. LD50 : above 20 g/kg

SMILES	Toxicity
FC(F)(F)C(F)(F)C(F)(F)C(F)(F)OC(C(F)(F)F)(C(F)(F)F)C(F)(F)C(F)(F)C(F)(F)F [drawing 61]	Non tox- ic

system: not listed separately; assay: Stability of emulsion stored at 4° C. (change of particle size); assay type: physicochemical; parameters: key: Excellent: Particle size is hardly increased one month after the storage.; Good: The increase of the particle size is at most 50% or liquid-particle separation is observed one month after the storage; settings: one month at 4° C., emulsion sterilized 100° C. 30 min
Experimental: as §1, §2
The emulsions were stored at 4° C. and the stability was measured in terms of the change of the particle size by the following measures.
Good: The increase of the particle size is at most 50% or liquid-particle separation is observed one month after the storage.

SMILES	Stability of Emulsion
FC(F)(F)C(F)(F)OC(C(F)(F)F)(C(F)(C(F)(F)F)C(F)(F)F)C(F)(C(F)(F)F)C(F)(F)F	excellent
FC(F)(F)C(F)(F)C(F)(F)OC(F)(F)C(F)(F)C(F)(F)C(F)(F)C(F)(F)C(F)(F)C(F)(F)F [Example 18, Perfluoro-1-n-propoxyheptane]	good
FC(F)(F)C(F)(F)C(F)(F)C(F)(F)OC(C(F)(F)F)(C(F)(F)F)C(F)(F)C(F)(F)C(F)(F)F [drawing 61]	Excellent
FC(F)(F)C(F)(F)C(F)(F)OC(F)(C(F)(C(F)(F)F)C(F)(F)F)C(F)(C(F)(F)F)C(F)(F)F [drawing 62]	excellent
FC(F)(F)OC(F)(C(F)(F)F)C(F)(F)C(C(F)(F)F)(C(F)(F)C(F)(F)F)C(F)(F)C(F)(F)F (stereo not drawn) [drawing 63]	good

system: not given; assay: not given; settings: 37° C.; cited from earlier work

SMILES	Vapor pressure [mmHg]
FC1(F)C(F)(F)C(F)(F)[C@]2(F)C(F)(F)C(F)(F)C(F)(F)C(F)(F)[C@]2(F)C1(F)F [perfluoro-cis-decalin]	10.1
FC1(F)C(F)(F)C(F)(F)[C@]2(F)C(F)(F)C(F)(F)C(F)(F)C(F)(F)[C@@]2(F)C1(F)F [trans isomer]	11.6

system: not listed separately; assay: Elimination property: half reduction term in the body of the rat; assay type: in vivo; settings: not given
Experimental: as §1, §2
This property was measured by the half reduction term in the body of the rat, and evaluated as follows: […]

SMILES	Elimination property
FC(F)(F)C(F)(F)C(F)(F)OC(F)(F)C(F)(F)C(F)(F)C(F)(F)C(F)(F)C(F)(F)C(F)(F)F [Example 18, Perfluoro-1-n-propoxyheptane]	poort
FC(F)(F)C(F)(F)C(F)(F)OC(F)(C(F)(C(F)(F)F)C(F)(F)F)C(F)(C(F)(F)F)C(F)(F)F [drawing 62]	fair
